This note sets out measurements from US9574216B2, “Auto-indicible expression system, and the use thereof for producing useful metabolites using a bacterium of the family enterobacteriaceae” (priority 2012, dated 2017).

One assay deals with T1, AHAS I (Escherichia coli, UniProt P08142+P0ADF8, N17K).
T1 construct: expressed in transfected cells; host or cells: E. coli K12 B7 (VKPM B-7) ΔilvGM ΔilvIH with a chromosomal ilvBN4 operon under PilvC (or PL); crude cell extracts
Description: Activity of AHAS I in crude cell extracts with or without addition of 10 mM L-Val. Type of assay: biochemical, E. coli. On the procedure:
Cells were grown to the middle-logarithmic phase in M9:LB (9:1, v/v) medium supplemented with glucose (0.4%, w/v). Activity of AHAS I in crude cells extracts was measured with or without addition of 10 mM L-Val according to the assay described in Stormer F. and Umbarger H., Biochem. Biophys. Res. Commun., 1964, 17(5):587-592.

The next assay deals with β-galactosidase LacZ. Description: Activity of β-galactosidase LacZ by Miller's method. Particulars: strain B7; +IPTG, 1 mM; middle-logarithmic phase, M9:LB (9:1) with glucose 0.4%. Type of assay: cell-based, E. coli. The method, then: For the measurement of β-galactosidase activity, the strains were grown to the middle-logarithmic phase in M9:LB (9:1, v/v) medium supplemented with glucose (0.4%, w/v). The medium for the strains having ilvAYC deletion and AHAS-deficient strains was additionally supplemented with Ile (25 mg/1) and Val (25 mg/1). Activity of β-galactosidase was measured according to Miller's method (Miller J. H. (1972) Experiments in molecular genetics. Cold Spring Harbor Laboratory, Cold Spring Harbor). The data presented in Table 2 indicate that expression level of the reporter lacZ gene under PilvC promoter varies within the range of more than two orders of magnitude depending on the genetic background. The maximal expression level was provided by the E. coli strains modified to overexpress L-valine resistant AHAS I (the product of the ilvBN4 genes) or/and containing inactivated the isomeroreductase IlvC encoding gene (ilvC).

T1 sequence (P08142 whole entry): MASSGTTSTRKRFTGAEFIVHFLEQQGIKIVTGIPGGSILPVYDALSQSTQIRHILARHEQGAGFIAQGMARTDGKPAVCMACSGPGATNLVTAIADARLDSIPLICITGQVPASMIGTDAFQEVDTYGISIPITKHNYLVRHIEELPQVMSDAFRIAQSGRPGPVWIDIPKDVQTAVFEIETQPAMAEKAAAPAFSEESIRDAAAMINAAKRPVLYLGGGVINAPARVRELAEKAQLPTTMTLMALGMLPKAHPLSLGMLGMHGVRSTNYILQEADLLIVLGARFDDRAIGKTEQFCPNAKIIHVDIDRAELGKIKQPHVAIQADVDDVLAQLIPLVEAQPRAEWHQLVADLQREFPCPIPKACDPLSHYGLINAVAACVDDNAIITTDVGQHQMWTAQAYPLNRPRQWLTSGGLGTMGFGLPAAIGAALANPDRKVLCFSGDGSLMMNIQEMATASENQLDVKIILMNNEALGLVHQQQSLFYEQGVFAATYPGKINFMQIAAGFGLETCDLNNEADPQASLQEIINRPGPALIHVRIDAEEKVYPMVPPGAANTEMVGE
T1 sequence (P0ADF8 whole entry N17K): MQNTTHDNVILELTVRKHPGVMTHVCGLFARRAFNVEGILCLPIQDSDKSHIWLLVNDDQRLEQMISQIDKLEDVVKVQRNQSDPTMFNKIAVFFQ

For `CC(C)[C@H](N)C(=O)O` [L-Val, L-valine], the results for the “AHAS I activity with L-Val, 10 mM (percent of value, measured without L-Val addition)” value on AHAS I (crude extract of strain B7 ΔilvGM ΔilvIH PL-ilvBN4 (control)), on AHAS I (crude extract of strain B7 ΔilvGM ΔilvIH cat-ilvY-PilvC-ilvBN4 cl.1) and on AHAS I (crude extract of strain B7 ΔilvGM ΔilvIH cat-ilvY-PilvC-ilvBN4 cl.4) were 86%, 88% and 88%, respectively. Moreover, the “AHAS I activity with L-Val, 10 mM” value on AHAS I (crude extract of strain B7 ΔilvGM ΔilvIH PL-ilvBN4 (control), mean of triplicate) turned out to be 51 nmol/min/mg; on AHAS I (crude extract of strain B7 ΔilvGM ΔilvIH cat-ilvY-PilvC-ilvBN4 cl.1, mean of triplicate), 80 nmol/min/mg; on AHAS I (crude extract of strain B7 ΔilvGM ΔilvIH cat-ilvY-PilvC-ilvBN4 cl.4, mean of triplicate), 106 nmol/min/mg.
With `CC(C)S[C@@H]1O[C@H](CO)[C@H](O)[C@H](O)[C@H]1O` [IPTG], the “Specific activity of β-galactosidase” value in the assay on β-galactosidase LacZ came out at 1200 Miller's units.
